Calls of active or inactive are those of the source.
Tests used:
INS1 = test: INS-1E survival protection against cytokine death – cell-based, luminescence, retest, dose response (AID 449756); format: functional; details: Rattus norvegicus;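 note: cell death triggered by IL-1 beta plus TNF-alpha plus IFN-gamma mixture; protective hits raise ATP signal compared with cytokine alone wells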
[1] = target: T1, Corticotropin-releasing factor receptor 2/Corticotropin-releasing factor-binding protein (Homo sapiens, UniProt P24387+Q13324); test: Dose Response confirmation of uHTS hits for small molecule antagonists of the CRF-binding protein and CRF-R2 receptor complex.; format: functional; details: read-out: IC50_Mean
T1 sequence (Q13324 whole entry): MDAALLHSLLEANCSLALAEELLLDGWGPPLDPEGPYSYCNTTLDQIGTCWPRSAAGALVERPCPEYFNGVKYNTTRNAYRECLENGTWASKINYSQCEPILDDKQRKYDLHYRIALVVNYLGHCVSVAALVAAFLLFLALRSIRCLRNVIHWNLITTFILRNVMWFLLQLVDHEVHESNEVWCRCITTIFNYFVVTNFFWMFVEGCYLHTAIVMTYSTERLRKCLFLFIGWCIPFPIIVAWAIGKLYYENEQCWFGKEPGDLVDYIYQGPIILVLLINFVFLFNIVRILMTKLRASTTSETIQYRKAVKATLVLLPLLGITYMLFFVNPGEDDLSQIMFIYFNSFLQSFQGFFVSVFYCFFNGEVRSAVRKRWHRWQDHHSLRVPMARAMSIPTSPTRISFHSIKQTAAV
T1 sequence (P24387 whole entry): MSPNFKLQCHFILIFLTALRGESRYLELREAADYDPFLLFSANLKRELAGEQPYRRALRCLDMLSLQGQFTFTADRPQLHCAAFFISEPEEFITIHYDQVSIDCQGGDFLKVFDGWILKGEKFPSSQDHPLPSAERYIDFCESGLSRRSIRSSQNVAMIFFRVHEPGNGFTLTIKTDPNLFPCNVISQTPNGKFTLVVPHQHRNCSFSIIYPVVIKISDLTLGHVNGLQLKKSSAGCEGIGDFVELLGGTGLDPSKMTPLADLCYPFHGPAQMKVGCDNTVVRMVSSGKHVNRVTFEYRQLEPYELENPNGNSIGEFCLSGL

[2] = target: T1, Corticotropin-releasing factor receptor 2/Corticotropin-releasing factor-binding protein; test: activators of CRF receptor 2 with binding protein – uHTS hits, confirmation (AID 602473); format: functional; details: read-out: EC50_Mean
[3] = target: T2, Heat shock factor protein 1 (Mus musculus, UniProt P38532); test: enhancement of HSF1-driven luciferase signal – cell-based, NIH3T3, luminescence, dose retest, confirmation (AID 435004); format: functional;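 note: stress induced by proteasome inhibitor MG132 added 30 min after compound; luciferase reporter driven by HSF1 response element in NIH3T3 cells; actives raise luminescence as potentiators of the MG132 stress response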
T2 sequence (P38532 whole entry): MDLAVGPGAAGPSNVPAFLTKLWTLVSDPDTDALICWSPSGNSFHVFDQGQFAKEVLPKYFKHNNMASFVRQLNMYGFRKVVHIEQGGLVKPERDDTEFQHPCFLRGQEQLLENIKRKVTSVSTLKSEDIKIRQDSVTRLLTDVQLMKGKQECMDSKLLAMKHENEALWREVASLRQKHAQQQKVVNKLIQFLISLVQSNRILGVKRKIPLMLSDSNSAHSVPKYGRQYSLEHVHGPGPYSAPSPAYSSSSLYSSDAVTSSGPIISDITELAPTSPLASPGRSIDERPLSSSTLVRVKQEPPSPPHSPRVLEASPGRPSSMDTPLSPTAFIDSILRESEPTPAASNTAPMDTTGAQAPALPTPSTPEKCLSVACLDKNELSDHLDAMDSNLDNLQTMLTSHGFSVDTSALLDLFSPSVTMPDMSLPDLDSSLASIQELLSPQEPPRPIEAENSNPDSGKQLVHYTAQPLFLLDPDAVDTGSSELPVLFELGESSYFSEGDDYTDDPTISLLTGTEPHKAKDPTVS

Cytochrome P450 3A4 = Cytochrome P450 3A4 (Homo sapiens, UniProt P08684);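 note: CYP3A4 tested as one member of a cytochrome P450 panel screen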
Cytochrome P450 2C19 = Cytochrome P450 2C19 (Homo sapiens, UniProt P33261); test: Cytochrome panel assay with activity outcomes. Panel member name: p450-cyp2c19 Compounds with AC50 equal or less than 10 uM are considered active; format: functional; details: read-out: AC50
Cytochrome P450 1A2 = target: T3, Cytochrome P450 1A2 (Homo sapiens, UniProt P05177);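 note: PubChem cytochrome P450 panel assay, CYP1A2 panel member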
T3 sequence (P05177 whole entry): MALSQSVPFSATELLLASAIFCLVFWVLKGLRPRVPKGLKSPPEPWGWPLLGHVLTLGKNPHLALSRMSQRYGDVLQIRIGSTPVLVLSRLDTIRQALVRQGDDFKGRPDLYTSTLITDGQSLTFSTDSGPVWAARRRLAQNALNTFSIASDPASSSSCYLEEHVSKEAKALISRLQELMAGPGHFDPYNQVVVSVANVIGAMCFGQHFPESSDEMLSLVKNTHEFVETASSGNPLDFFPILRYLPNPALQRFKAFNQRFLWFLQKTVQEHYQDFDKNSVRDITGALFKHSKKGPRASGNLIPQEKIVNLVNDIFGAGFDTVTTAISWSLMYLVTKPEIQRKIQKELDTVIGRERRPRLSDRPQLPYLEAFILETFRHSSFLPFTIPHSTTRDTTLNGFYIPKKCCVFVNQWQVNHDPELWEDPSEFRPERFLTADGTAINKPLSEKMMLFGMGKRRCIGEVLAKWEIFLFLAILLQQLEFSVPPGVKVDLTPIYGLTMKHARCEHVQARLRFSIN

[4] = Luminescence Cell-Based Dose Response HTS to Identify Activators of Luciferase Translation or Activity in H4 […] Cells. [Related pubchem assays: 1829 (Project Summary), 1814 (Primary HTS)]; format: functional
Cytochrome P450 2C9 = Cytochrome P450 2C9 (Homo sapiens, UniProt P11712)
[5] = Luminescence Cell-Based Dose Retest to Confirm Inhibitors of Cancer Stem Cells. [Related pubchem assays (depositor defined):AID2717, AID2721]; format: functional; details: Homo sapiens
[6] = viability of uninfected HEp-2 cells – cell-based, HTS, cytotoxicity control for RSV inhibitor project, dose response (AID 2410); format: functional; details: human respiratory syncytial virus
[7] = Trypanosoma cruzi growth suppression in host cells – NIH3T3 host cells, beta-gal luminescence, confirmation (AID 2044); format: functional, cell-based;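 note: intracellular parasites grown in NIH/3T3 mouse fibroblasts as host cells; luminescent beta-galactosidase reporter signal from transgenic T. cruzi replicating inside host cells; inhibitors lower the luminescence signal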
[8] = NIH3T3 cell viability loss – ATP luminescence, mouse fibroblasts, counter-screen, dose response (AID 2010); format: functional, cell-based;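 note: cells exposed to compound for about 90 hours before reading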

Chain of Cytochrome P450 3A4 (P08684 whole entry): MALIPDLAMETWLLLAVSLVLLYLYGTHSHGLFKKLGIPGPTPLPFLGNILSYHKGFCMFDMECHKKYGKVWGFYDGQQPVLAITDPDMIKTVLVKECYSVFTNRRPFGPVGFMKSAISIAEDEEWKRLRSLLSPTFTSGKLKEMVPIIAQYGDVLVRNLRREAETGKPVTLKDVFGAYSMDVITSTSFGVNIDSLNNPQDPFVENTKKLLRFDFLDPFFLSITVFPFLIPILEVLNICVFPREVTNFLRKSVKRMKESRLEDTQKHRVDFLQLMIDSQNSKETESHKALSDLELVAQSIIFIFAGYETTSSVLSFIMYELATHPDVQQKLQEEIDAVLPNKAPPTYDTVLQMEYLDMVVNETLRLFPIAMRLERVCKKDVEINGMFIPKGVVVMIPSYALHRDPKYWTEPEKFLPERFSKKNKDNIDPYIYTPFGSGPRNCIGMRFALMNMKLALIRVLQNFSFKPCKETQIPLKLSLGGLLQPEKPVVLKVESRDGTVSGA
Chain of Cytochrome P450 2C9 (P11712 whole entry): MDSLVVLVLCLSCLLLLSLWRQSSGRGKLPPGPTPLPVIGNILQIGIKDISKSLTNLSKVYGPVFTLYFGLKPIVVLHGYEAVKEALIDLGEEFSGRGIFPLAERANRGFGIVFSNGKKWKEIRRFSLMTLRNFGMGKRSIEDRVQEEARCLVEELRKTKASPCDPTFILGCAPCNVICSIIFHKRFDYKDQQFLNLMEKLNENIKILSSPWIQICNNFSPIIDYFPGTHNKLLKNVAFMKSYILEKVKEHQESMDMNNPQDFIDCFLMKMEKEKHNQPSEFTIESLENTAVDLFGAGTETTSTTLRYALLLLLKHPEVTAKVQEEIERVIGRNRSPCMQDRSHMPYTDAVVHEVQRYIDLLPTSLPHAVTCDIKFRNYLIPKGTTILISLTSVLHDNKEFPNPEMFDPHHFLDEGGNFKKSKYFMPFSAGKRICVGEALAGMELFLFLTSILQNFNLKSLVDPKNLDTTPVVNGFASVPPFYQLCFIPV
Chain of Cytochrome P450 2C19 (P33261 whole entry): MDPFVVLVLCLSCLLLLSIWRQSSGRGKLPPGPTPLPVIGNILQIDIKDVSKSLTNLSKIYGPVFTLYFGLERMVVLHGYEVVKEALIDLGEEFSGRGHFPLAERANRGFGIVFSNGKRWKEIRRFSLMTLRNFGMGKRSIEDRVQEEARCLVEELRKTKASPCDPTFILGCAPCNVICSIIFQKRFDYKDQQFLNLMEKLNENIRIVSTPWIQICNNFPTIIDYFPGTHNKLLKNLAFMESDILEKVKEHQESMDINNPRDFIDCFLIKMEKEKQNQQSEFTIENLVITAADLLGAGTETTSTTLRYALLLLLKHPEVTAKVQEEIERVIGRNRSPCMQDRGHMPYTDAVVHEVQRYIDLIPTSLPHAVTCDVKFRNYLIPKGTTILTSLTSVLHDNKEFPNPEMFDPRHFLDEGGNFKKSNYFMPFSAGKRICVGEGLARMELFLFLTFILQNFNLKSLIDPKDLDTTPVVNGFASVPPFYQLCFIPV

CN(CC1CCCO1)S(=O)(=O)c1ccc(C(=O)Nc2nc(-c3ccccn3)cs2)cc1 (configuration not stated)
AC50 (INS1): 2.42 µM (active)

Cc1ccc(OCCOC(=O)Cn2nc(C)c([N+](=O)[O-])c2C)cc1
IC50 [1]: > 47.1 µM (inactive) | EC50 [2]: > 53 µM (inactive)

O=C(CSc1nnc2c(Cl)cc(C(F)(F)F)cn12)N(Cc1ccccc1)Cc1ccccc1
EC50 [3]: > 260 µM (inactive)

Cc1cccc(C)c1OCC(=O)Nc1oc(-c2ccccc2)c(-c2ccccc2)c1C#N
IC50 [1]: > 47.1 µM (inactive) | EC50 [2]: > 53 µM (inactive)

CSc1ccc(CNc2ccccc2)cc1
AC50 (Cytochrome P450 3A4): 35.5 µM (inconclusive)

O=C(CCCN1CCC2(CC1)C(=O)N(Cc1cccc(F)c1)CN2c1ccccc1)c1ccc(F)cc1
AC50 (Cytochrome P450 3A4): 31.6 µM (inconclusive) | AC50 (Cytochrome P450 2C19): 7.94 µM (inconclusive) | AC50 (Cytochrome P450 1A2): 39.8 µM (inconclusive)

Cc1c2cnn(CC(=O)NC3CCCC3)c(=O)c2c(C)n1Cc1ccccc1
EC50 [4]: 51.2 µM (active) | IC50 [1]: > 47.1 µM (inactive) | EC50 [2]: > 53 µM (inactive)

COc1ccccc1NC(=O)Nc1nnc(-c2ccco2)s1
AC50 (Cytochrome P450 3A4): 17.8 µM (inconclusive)

Cc1nnc(NC(=O)C2CCCN(c3ncccn3)C2)s1 (configuration not stated)
IC50 [1]: > 47.1 µM (inactive) | EC50 [2]: > 53 µM (inactive)

Cc1c(/N=C2\SCC(=O)N2/N=C\c2ccc(Br)cc2)c(=O)n(-c2ccccc2)n1C
EC50 [3]: > 260 µM (inactive)

Cc1cc(NC(=O)Cn2cnc3sc(C)c(-c4ccccc4)c3c2=O)no1
EC50 [3]: > 260 µM (inactive)

COc1ccc(Cl)cc1NC(=O)CCc1nc(-c2ccccc2F)no1
EC50 [3]: > 260 µM (inactive)

O=C([O-])c1cc(-c2ccccc2)cc(-c2ccccc2)[n+]1Cc1ccccc1
AC50 (INS1): 1.96 µM (active)

Cc1nnc(NC(=O)c2oc3c(ccc4ccccc43)c2C)s1
AC50 (Cytochrome P450 2C9): 17.8 µM (inconclusive) | AC50 (Cytochrome P450 3A4): 12.6 µM (inconclusive)

CCn1c(SC)nnc1C1CCCN(CC(=O)Nc2ccccc2N2CCOCC2)C1 (configuration not stated)
EC50 [3]: > 260 µM (inactive)

COCCOC(=O)C1=C(C)N=C(C)/C(=C(/O)OCCOC)C1/C=C/c1ccccc1OC (configuration not stated)
EC50 [3]: 45.7 µM (active)

Cc1cccc(Cn2cc(/C=C/[N+](=O)[O-])c3ccccc32)c1
AC50 [5]: 3.7 µM (active) | CC50 [6]: 12.7 µM (active)

COc1ccc2c(OC)c3ccoc3nc2c1OC [SKIMMIANINE]
AC50 (Cytochrome P450 3A4): 7.94 µM (inconclusive)

Cc1[nH]c2c(ccc3ccccc32)c1C1C(CCN)C1(C)C (configuration not stated)
EC50 [7]: 2.56 µM (active) | AC50 (INS1): 15.1 µM (active) | EC50 [8]: 13.2 µM (active)

Cc1ccccc1Cn1nc(C)c(NC(=O)C2c3ccccc3Oc3ccccc32)c1C
EC50 [3]: > 260 µM (inactive)

CCc1ccc(-c2cc(C(F)(F)F)n3nc(C(=O)Nc4cnn(Cc5ccccc5C)c4)cc3n2)s1
AC50 (Cytochrome P450 3A4): 3.16 µM (inconclusive)

From ChEMBL document CHEMBL1201862, “PubChem BioAssay data set” (2004)
